Reference: the NIST ThermoML archive (doi:10.1016/j.fluid.2006.07.013)

Assay: xn = mol fraction of the nth substance listed

CC(C)COC(=O)CCCCC(=O)OCC(C)C [diisobutyl adipate] + O=C=O
Conditions | mass density [kg/m3]
294.75 K, Liquid, Volume and mass of phase, x1 = 0.11 | 807
295.25 K, Liquid, Volume and mass of phase, x1 = 0.039 | 795
298.95 K, Liquid, Volume and mass of phase, x1 = 0.11 | 805
302.75 K, Liquid, Volume and mass of phase, x1 = 0.096 | 814
304.65 K, Liquid, Volume and mass of phase, x1 = 0.11 | 805
305.35 K, Gas, volume and mass of phase, x1 = 0.011 | 702
305.75 K, Liquid, Volume and mass of phase, x1 = 0.039 | 764
308.85 K, Liquid, Volume and mass of phase, x1 = 0.11 | 791
310.35 K, Liquid, Volume and mass of phase, x1 = 0.064 | 793
311.05 K, Gas, volume and mass of phase, x1 = 0.011 | 667
311.25 K, Liquid, Volume and mass of phase, x1 = 0.161 | 865
311.95 K, Liquid, Volume and mass of phase, x1 = 0.592 | 813
312.15 K, Liquid, Volume and mass of phase, x1 = 0.282 | 853
314.45 K, Liquid, Volume and mass of phase, x1 = 0.11 | 789
316.85 K, Liquid, Volume and mass of phase, x1 = 0.039 | 739
322.15 K, Liquid, Volume and mass of phase, x1 = 0.096 | 800
322.55 K, Liquid, Volume and mass of phase, x1 = 0.11 | 791
323.65 K, Liquid, Volume and mass of phase, x1 = 0.282 | 832
329.95 K, Gas, volume and mass of phase, x1 = 0.011 | 639
330.75 K, Liquid, Volume and mass of phase, x1 = 0.11 | 766
332.65 K, Liquid, Volume and mass of phase, x1 = 0.039 | 732
332.75 K, Liquid, Volume and mass of phase, x1 = 0.592 | 829
337.45 K, Liquid, Volume and mass of phase, x1 = 0.282 | 821
342.05 K, Liquid, Volume and mass of phase, x1 = 0.11 | 756
343.35 K, Liquid, Volume and mass of phase, x1 = 0.064 | 762
345.25 K, Liquid, Volume and mass of phase, x1 = 0.039 | 702
347.35 K, Liquid, Volume and mass of phase, x1 = 0.096 | 768
350.15 K, Liquid, Volume and mass of phase, x1 = 0.282 | 810
351.35 K, Liquid, Volume and mass of phase, x1 = 0.592 | 819
353.25 K, Liquid, Volume and mass of phase, x1 = 0.161 | 791
356.25 K, Liquid, Volume and mass of phase, x1 = 0.11 | 740
357.45 K, Gas, volume and mass of phase, x1 = 0.011 | 558
357.75 K, Liquid, Volume and mass of phase, x1 = 0.039 | 675
360.85 K, Liquid, Volume and mass of phase, x1 = 0.064 | 724
363.05 K, Liquid, Volume and mass of phase, x1 = 0.282 | 800
366.65 K, Liquid, Volume and mass of phase, x1 = 0.039 | 660
369.85 K, Liquid, Volume and mass of phase, x1 = 0.096 | 731
370.95 K, Liquid, Volume and mass of phase, x1 = 0.592 | 807
371.25 K, Liquid, Volume and mass of phase, x1 = 0.11 | 723
371.55 K, Liquid, Volume and mass of phase, x1 = 0.282 | 791
376.85 K, Gas, volume and mass of phase, x1 = 0.039 | 638
378.45 K, Gas, volume and mass of phase, x1 = 0.011 | 518
380.95 K, Liquid, Volume and mass of phase, x1 = 0.161 | 760
381.65 K, Liquid, Volume and mass of phase, x1 = 0.064 | 687
383.95 K, Liquid, Volume and mass of phase, x1 = 0.282 | 776
391.15 K, Liquid, Volume and mass of phase, x1 = 0.592 | 790
392.25 K, Liquid, Volume and mass of phase, x1 = 0.096 | 696
400.05 K, Gas, volume and mass of phase, x1 = 0.064 | 655
400.55 K, Liquid, Volume and mass of phase, x1 = 0.282 | 760
401.45 K, Gas, volume and mass of phase, x1 = 0.039 | 588
401.65 K, Liquid, Volume and mass of phase, x1 = 0.11 | 681
404.55 K, Gas, volume and mass of phase, x1 = 0.011 | 471
408.05 K, Liquid, Volume and mass of phase, x1 = 0.161 | 721
409.85 K, Liquid, Volume and mass of phase, x1 = 0.592 | 777
419.65 K, Liquid, Volume and mass of phase, x1 = 0.282 | 740
420.05 K, Liquid, Volume and mass of phase, x1 = 0.096 | 651
421.25 K, Gas, volume and mass of phase, x1 = 0.064 | 617
421.85 K, Liquid, Volume and mass of phase, x1 = 0.161 | 706
423.15 K, Liquid, Volume and mass of phase, x1 = 0.592 | 772
423.65 K, Liquid, Volume and mass of phase, x1 = 0.11 | 650
424.65 K, Gas, volume and mass of phase, x1 = 0.039 | 541
